{
  "source": "patent US20180354909A1",
  "about": "“SUBSTITUTED BENZIMIDAZOLIUM, PYRIDO-IMIDAZOLIUM, OR PYRAZINO-IMIDAZOLIUM COMPOUNDS AS CHEMOTHERAPEUTICS” (The Board of Regents of the University of Texas System, priority 2015, published 2018)",
  "key": {"[1]": {"test_system": "cancer cell lines (HeLa, DAOY, MCF7, 435 and HCC38 cells)", "assay": "CellTiter-Glo cell viability in cancer cell lines", "assay_type": "cell-based, human", "conditions": "significant proportion of cell lines tested, excluding DAOY and MEF", "experimental": "The activity of compound 12M11 was tested against a variety of cancer cell lines (see FIG. 2A), including those are routinely used in the literature such as HeLa, DAOY, MCF7, 435 and HCC38 cells. […] Just as for MEF cells, without wishing to be bound by any theory, it is believed that the resistance of DAOY cells to the OxyPhos inhibitor 12M11 can be attributed to their higher ATP levels per cell (FIG. 13B) combined with lower intrinsic OxyPhos activity as assessed by TMRE staining (FIG. 13C)."}, "[2]": {"test_system": "oxidative phosphorylation complexes I-V", "assay": "Avidin agarose pull-down of Biotin-12M11 interacting proteins from Mut6 cells", "assay_type": "binding, mouse", "conditions": "Mut6 cell lysates", "experimental": "To understand the unique selectivity of 12M11 to affect the viability of Mut6 cells, the precise molecular target(s) of 12M11 were determined. A 12M11 biotinylated variant (see Cpd 1.11, FIG. 16C) was generated to attempt to directly pull down interacting proteins. […] Mut6 cells were treated with 12M11, Biot-12M11, or pre-incubated with 12M11 followed by addition of Biot-12M11 (see FIG. 17 for a general schematic protocol). As indicated in the silver stain of a denaturing gel (FIG. 18A) with the pull down reactions, several bands that appear in the Biot-12M11 tract (Lane 2) are substantially diluted or absent in Lane 3 where the cells were pre-incubated with excess 12M11. […] The results from Mass-Spec analysis were as follows: 1) Lysate from Mut6 cells incubated with 12M11 alone yielded no proteins; 2) Lysate from Mut6 cells incubated with Biot-12M11 yielded 8 proteins (Atp5a1, Acaca, Hspa9, Hsp60, Decr1, Sdha, Pcca, and Atp5o; FIG. 19B). Two of the proteins, Acac and Pcca, were discounted as known to nonspecifically bind Biotin (Tong, 2005; Diacovich, et al., 2004; Kalousek, et al., 1980). The remaining 6 proteins all localize to the mitochondrion and 3 of the pulled down proteins are components of the oxidative phosphorylation complexes. […]"}, "[3]": {"assay": "In vivo plasma PK, 10 mg/kg IP", "parameters": "species or system mice", "conditions": "female, CD-1, mouse", "experimental": "22E. 21 female CD-1 mice (6 wks) were administered 10 mg/kg L129 IP, 0.2 ml/mouse formulated as 5% DMSO, 10% Cremophor EL, and 85% D5W. Plasma was processed from whole blood by centrifugation of the ACD treated blood for 10′ at 10,000 rpm in a standard centrifuge. Brains were weighed and snap frozen in liquid nitrogen. Brain homogenates were prepared by mincing the brain tissue and homogenizing in a 3-fold volume of PBS (total volume of homogenate in mL=4× weight in g.) 100 microliters plasma or brain homogenate was mixed with 200 microliters of acetonitrile containing formic acid and an internal standard (final concentration of formic acid=0.1%, IS=25 ng/mL). The samples were vortexed 15 sec, incubated at room temp for 10′ and spun 2×13,200 rpm in a standard microcentrifuge. The supernatant was then analyzed by LC/MS/MS. Buffer A: Water+0.1% formic acid; Buffer B: MeOH+0.1% formic acid; flow rate 1.5 ml/min; column Agilent C18 XDB column, 5 micron packing 50×4.6 mm size; 0-1.5 min 3% B, 1.5-2.5 min gradient to 100% B; 2.5-3.5 min 100% B, 3.5-3.6 min gradient to 3% B; 3.6-4.5 min 3% B; IS N-benzylbenzamide (transition 212.1 to 91.1); Compound transition 474.2 to 336.3. These methods were used data obtained in the FIGS. 22B and 22E."}, "MEF [4]": {"test_system": "MEF", "assay": "Change in ATP levels in MEF cells", "assay_type": "cell-based, mouse", "conditions": "2-6 hr", "experimental": "(§1) Mut6 tumor cells or MEFs were plated into 96-well plates. One day later, Oligomyin (2 μM), Rotenone (200 nM), or 12M11 (1 μM) were added into each well and then ATP levels were measured by Cell-Titer Glo (Promega) after 2 hr, 4 hr, or 6 hr incubation. Each data is mean of six replicates with ± standard deviation."}, "MEF [5]": {"test_system": "MEF", "assay": "Cytotox testing (CellTiter-Glo) in MEF", "assay_type": "cell-based, mouse", "experimental": "Mut6 tumor cells were cultured in DMEM/F12 media supplemented by EGF (10 ng/mL), basic FGF (10 ng/mL), heparin (4 ug/mL), glucose (total 21 mM), NaHCO3 (113 μg/mL), Hepes (119 μg/mL), glutamine (2 mM), sodium pyruvate (1 mM), N2 supplement (ThermoFisher Gibco 17502-048, 100×, at 100-fold dilution), B27 supplement (ThermoFisher Gibco 12587-010, 50×, at 100-fold dilution), and penicillin/streptomycin (ThermoFisher, final 1%). Cells were maintained in Ultra-low attachment plate (Corning) as sphere-forming cells. For ATP assays and protein/RNA isolation, cells were plated into 96-well plates or 6-well plated that were coated with poly-lysine (Sigma P6407, 10 μg/mL in PBS, 4 hr at 37° C.) and laminin (ThermoFisher 23017015, ˜5 mg/L in PBS, overnight at 37° C.). MEFs and Astrocytes were cultured in DMEM supplemented with 10% FBS and 1% Penicillin/Streptomycin.\n2,000 cells were plated into each well of 96-well plates. About 3 hours later, cells were treated by 12M11, at 800-fold dilution (4 mM stock was diluted into 5 μM final concentration). Cells were further incubated for 4 days. CellTiter-Glo assay (Promega) was performed according to manufacturer's instructions, by adding 20 μL of reagent into each well. Luminescence signal was detected by the PolarStar plate reader (BMG Labtech). […] EC505 were calculated by GraphPad Prism6 software."}, "Hepatocyte half-life": {"assay": "Hepatocyte half-life", "assay_type": "in vitro ADME", "conditions": "hepatocytes; in vitro; read-out: hepatocyte T1/2"}, "Mut6": {"test_system": "Mut6", "assay": "Change in ATP levels in Mut6 cells", "assay_type": "cell-based, mouse", "conditions": "Mut6, 2-6 hr", "experimental": "as §1"}},
  "note": "“Also recorded” adds a separate entry of the source.",
  "data": [
    {"smiles": "CCc1n(CC(=O)O[C@@H]2C[C@H](C)CC[C@H]2C(C)C)c2ccccc2[n+]1C.[Cl-]", "note": "[Compound 12M11]", "values": [
      {"measurement": "EC50", "setting": "[1]", "result": "mid nanomolar to low micromolar range"},
      {"measurement": "association with OxyPhos complex proteins (pull-down)", "setting": "[2]", "result": "excludes"},
      {"measurement": "Cmax", "setting": "[3]", "result": 2.7, "unit": "ng/mL"},
      {"measurement": "ATP levels (% change from basal)", "setting": "MEF [4]", "result": "increase"},
      {"measurement": "activity against MEF", "setting": "MEF [5]", "result": "no to minimal effect; also recorded: no activity"},
      {"measurement": "half-life", "setting": "Hepatocyte half-life", "result": 4.28, "unit": "h"},
      {"measurement": "ATP levels (% change from basal)", "setting": "Mut6", "result": "decrease significantly"}
    ]}
  ]
}
